These results are taken from patent publication US5814627A, “3, 5-disubstituted and 3, 4, 5-trisubstituted 2-isoxazolines and isoxazoles, process for their preparation and their use as pharmaceuticals” (Hoechst Aktienegesellschaft, priority 1994, dated 1998).

As usually defined, the ED50 is the dose at which the effect has come halfway, by size or by number of responders. The low end stands for an effect at a small dose, the high end for a need for a large dose.

Test [1] deals with IL-1α release from mononuclear cells. As to the kind of experiment: Test 4: cytokine release from LPS-stimulated mononuclear cells, IL-1α. The conditions noted are these: Homo sapiens, 10 μM, read-out: Test 4 residual activity (IL-1α release), percent of control. The format is cell-based. Here is the method:
(§1) Test 4. Stimulation of the cytokine release
(§2) Isolation of mononuclear cells from human blood
(§3) 10 ml of human blood, stabilized with 1 ml of 3.8% sodium citrate solution, were diluted with 10 ml of PM16 (Serva, Heidelberg) and underlaid with 15 ml of Lymphoprep (Dr. Molter GmbH, Heidelberg). The samples were centrifuged, at room temperature for 40 minutes, at 400×g (1600 rpm, Minifuge 2, Heraeus, Osterode). The mononuclear cells are visible as a white ring at the Lymphoprep/plasma interface. This ring was carefully removed with a syringe, diluted with an equal volume of PM16, and centrifuged for 10 minutes at 400×g. The sediment was washed with approximately 10 ml of RPMI1640 (+300 mg/l L-glutamine, Gibco, Eggenstein) (Wallis, 1986). After the cells had been resuspended in approximately 1 ml of RPMI1640 (+300 mg/l L-glutamine+25 mM HEPES+100 μg/ml streptomycin+100 μg/ml penicillin), the cell density was determined using a Coulter Counter JT (Coulter Diagnostics) and adjusted to 5*10^6 /ml. Typically, the cells are composed of 90% lymphocytes and 10% monocytes.
230 μl of mononuclear cells were incubated, at 37° C.; 5% CO2 for 20-22 hours (5 hours in the case of IL-6), with 10 μl of test substance ([…]) and 10 μl of lipopolysaccharide (LPS; 500 μg dissolved in 1 ml of DMSO and diluted 1/10 with water prior to beginning the test; from Salmonella abortus equi, Sigma, Deisenhofen). The samples were cooled down to 0° C. in an ice bath and centrifuged in a Sigma centrifuge (2 minutes; 2000 rpm). Aliquots of the supernatant are measured with an ELISA (Biermann, Bad Nauheim). The abbreviation IL stands for interleukin and TNF for tumor necrosis factor alpha.
(§4) The values in the table show the concentration of the test substance which was employed in μM and, besides this, the residual activity measured in percent based on the control, which was set to be 100%. The interleukin is additionally indicated in test 4.

Test [2] deals with IL-1β release from mononuclear cells. Description: Test 4: cytokine release from LPS-stimulated mononuclear cells, IL-1β. Type of test: cell-based. As to conditions: Homo sapiens, 10 μM, read-out: Test 4 residual activity (IL-1β release), percent of control. The protocol:
as §1, §2, §3
(§5) 230 μl of mononuclear cells were incubated, at 37° C.; 5% CO2 for 20-22 hours (5 hours in the case of IL-6), with 10 μl of test substance (10 μM in DMSO/water, 1/10) and 10 μl of lipopolysaccharide (LPS; 500 μg dissolved in 1 ml of DMSO and diluted 1/10 with water prior to beginning the test; from Salmonella abortus equi, Sigma, Deisenhofen). The samples were cooled down to 0° C. in an ice bath and centrifuged in a Sigma centrifuge (2 minutes; 2000 rpm). Aliquots of the supernatant are measured with an ELISA (Biermann, Bad Nauheim). The abbreviation IL stands for interleukin and TNF for tumor necrosis factor alpha.
as §4

Test [3] concerns IL-1 release from mononuclear cells. Description: Test 4: cytokine release from LPS-stimulated mononuclear cells, IL-1. The format is cell-based. The conditions noted are these: Homo sapiens; IL-1; 10 μM; read-out: Test 4 residual activity (IL-1 release), percent of control. The protocol: as §1, §2, §3, §5, §4
Test [4] has as its system IL-6 release from mononuclear cells. As to the kind of experiment: Test 4: cytokine release from LPS-stimulated mononuclear cells, IL-6. Type of test: cell-based. As to conditions: Homo sapiens, 5 hours incubation, read-out: Test 4 residual activity (IL-6 release), percent of control. Here is the method: as §1, §2
as §3, with “The sediment was washed with approximately 10 ml of RPMI1640 (+300 mg/l L-glutamine, Gibco, Eggenstein) (Wallis, 1986).” left out, “Typically, the cells are composed of 90% lymphocytes and 10% monocytes.” left out
230 μl of mononuclear cells were incubated, at 37° C.; 5% CO2 for 20-22 hours (5 hours in the case of IL-6), with 10 μl of test substance (10 μM in DMSO/water, 1/10) and 10 μl of lipopolysaccharide (LPS; 500 μg dissolved in 1 ml of DMSO and diluted 1/10 with water prior to beginning the test; from Salmonella abortus equi, Sigma, Deisenhofen). […] Aliquots of the supernatant are measured with an ELISA (Biermann, Bad Nauheim). […]

Test [5] deals with PAF-induced asthma attack. Description: Test 7: antiasthmatic effect, PAF-induced asthma attack. Type of test: in vivo. As to conditions: Cavia porcellus; i.d., 15 minutes before PAF; guinea pig. An outline of the steps:
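Anesthetized guinea pigs given PAF through a jugular vein cannula; test compounds dosed i.v. through the same cannula 5 min before PAF, or intraduodenally via surgical cannula 15 min before. Bronchial width recorded by overflow pneumonogram before and after dosing; ED50 in mg/kg i.d. against the PAF-induced attack.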

The test system of a further test is adjuvant/arthritis model. As to the kind of experiment: Test 6: antiarthritic effect in the adjuvant/arthritis model. The format is in vivo, rat (Wistar-Lewis). The conditions noted are these: Rattus norvegicus, po, 408 h, 50 mg/kg orally, daily for 17 days; rat; read-out: Test 6 Paw volume (% inhibition).

Procedure for adjuvant/arthritis model: Male rats of a Wistar-Lewis strain (Mollegaard/Denmark) were used as experimental animals. The body weight is between 160 and 200 g. Subplantar injection of 0.1 ml of Freund's adjuvant (=6 mg of Mycobacterium butyricum suspension, Difco Lab./Detroit, Mich. USA, per ml of heavy white paraffin oil, Merck, Darmstadt) into the root of the tail resulted, on the 10th to 14th day of the experiment, in immunopathological processes and chronic inflammations, particularly in the form of arthritic and periarthritic symptoms, at other sites in the body (secondary lesions). The animals were fed ad libitum with the standard feed Altromin-R, from Altrogge, Lage, and provided with tap water. The animals were given 60 mg of codein per kg as an analgesic from the 14th day to the end of the experiment. The test substances were administered orally as a CMC suspension, in an injection volume of 1 ml/100 g of body weight, on each day (in all for 17 days), beginning on the day of the adjuvant administration. The volumes of each of the hind paws, and the body weight, were measured on the first and on the 18th day of the experiment. Diminution in the increase of paw volume, as compared with the untreated control group, served as the criterion of activity, with the two hind paws being averaged.

Regarding `CC(C)(C)c1cc(C2CC(CCC(=O)O)=NO2)cc(C(C)(C)C)c1O` (stereo not drawn) [Example 63, 5-(4-Hydroxy-3,5-di-tert-butylphenyl)-2-isoxazolin-3-ylpropionic acid], the activity at 10 µM in test [1] is 75%; in test [2], 77%.
On to `CC(C)(C)c1cc(C2=NOC(c3ccccn3)C2)cc(C(C)(C)C)c1O` (stereo not drawn) [Example 9], for which the activity at 10 µM in test [3] worked out at 73%; in test [4] (10 μM), 93%. This molecule also showed a median effective dose (ED50) in test [5] of about 50 mg/kg.
Consider `CC(O)c1cc(-c2cc(C(C)(C)C)c(O)c(C(C)(C)C)c2)no1` (stereo not drawn) [Example 28], for which, in test [1], the activity at 10 µM worked out at 93%. The inhibition in vivo at 50 mg/kg in the test with adjuvant/arthritis model turned out to be 74%.
On to `CC(C)(C)c1cc(-c2cc(CNS(=O)(=O)C(F)(F)F)on2)cc(C(C)(C)C)c1O` [Example 49, N-(3-(4-Hydroxy-3,5-di-tert-butylphenyl)isoxazol-5-ylmethyl)trifluoromethanesulfonamide], for which the activity at 1 µM in test [4] (1 μM) was 91%. Moreover, the ED50 in test [5] was about 50 mg/kg.
